Assay results as given in patent US20250215029A1 (Recludix Pharma, Inc., priority 2022, published 2025).
Read-outs that look alike come from different tables or passages of the source.

Key:
pY705-STAT3 in PBMC = target: T1, pY705-STAT3 in PBMC (Homo sapiens, UniProt P40763); test: MSD-pSTAT-PBMC Assay (pSTAT3, IL-6 stimulated); type: cell-based; details: compound 3 hrs, then 10 ng/mL IL-6 for 10 min
T1 construct: Cryopreserved Peripheral Blood Mononuclear Cells (PBMC) are from AllCells; host or cells: cryopreserved PBMC
Procedure, shortened: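 Cells are preincubated with compound for 3 hrs, then stimulated for 10 min, IL-4 at 1 ng/mL driving STAT6 phosphorylation and IL-6 at 10 ng/mL driving STAT3. Phospho-STAT in lysates is quantified by MSD immunoassay, and IC50 is fitted after subtracting unstimulated wells.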

pY641-STAT6 in PBMC = target: T2, pY641-STAT6 in PBMC (Homo sapiens, UniProt P42226); test: MSD-pSTAT-PBMC Assay (pSTAT6, IL-4 stimulated); type: cell-based; details: compound 3 hrs, then 1 ng/mL IL-4 for 10 min
T2 construct: Cryopreserved Peripheral Blood Mononuclear Cells (PBMC) are from AllCells; host or cells: cryopreserved PBMC
T2 sequence (P42226 1-847): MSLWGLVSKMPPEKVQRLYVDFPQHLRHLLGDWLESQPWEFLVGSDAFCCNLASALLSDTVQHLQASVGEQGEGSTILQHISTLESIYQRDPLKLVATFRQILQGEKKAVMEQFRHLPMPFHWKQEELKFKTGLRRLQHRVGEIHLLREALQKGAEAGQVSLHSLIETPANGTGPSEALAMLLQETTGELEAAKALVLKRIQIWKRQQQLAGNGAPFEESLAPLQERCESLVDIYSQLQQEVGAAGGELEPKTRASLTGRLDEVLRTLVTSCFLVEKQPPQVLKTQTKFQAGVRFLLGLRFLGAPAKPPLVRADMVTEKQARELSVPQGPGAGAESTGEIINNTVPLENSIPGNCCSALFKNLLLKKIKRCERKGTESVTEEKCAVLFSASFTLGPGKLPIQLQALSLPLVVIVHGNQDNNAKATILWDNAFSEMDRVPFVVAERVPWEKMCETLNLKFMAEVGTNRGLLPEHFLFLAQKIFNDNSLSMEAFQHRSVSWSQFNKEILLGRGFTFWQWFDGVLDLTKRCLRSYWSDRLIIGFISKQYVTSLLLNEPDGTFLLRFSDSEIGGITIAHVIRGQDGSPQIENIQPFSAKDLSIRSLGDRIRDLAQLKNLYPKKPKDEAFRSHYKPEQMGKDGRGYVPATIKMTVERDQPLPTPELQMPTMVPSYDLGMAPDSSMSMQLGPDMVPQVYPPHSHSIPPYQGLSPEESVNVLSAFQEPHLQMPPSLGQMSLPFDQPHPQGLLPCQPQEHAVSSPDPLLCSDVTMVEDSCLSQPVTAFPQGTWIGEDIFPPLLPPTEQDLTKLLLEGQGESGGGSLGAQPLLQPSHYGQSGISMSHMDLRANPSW
Procedure, shortened: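 MSD electrochemiluminescence read-out: total STAT captured, probed with anti-pY641-STAT6 or anti-pY705-STAT3. Human PBMC, 3 h compound pretreatment, 10 min stimulation (IL-4 1 ng/mL or IL-6 10 ng/mL). Unstimulated signal subtracted, DMSO-normalized, variable-slope IC50.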

[1] = PBMC, Table 115, read-out: STAT3
[2] = PBMC, Table 115, read-out: STAT6
[3] = PBMC, Table 1114, read-out: pSTAT3
[4] = PBMC, Table 1114, read-out: pSTAT6

T1 sequence (P40763 whole entry): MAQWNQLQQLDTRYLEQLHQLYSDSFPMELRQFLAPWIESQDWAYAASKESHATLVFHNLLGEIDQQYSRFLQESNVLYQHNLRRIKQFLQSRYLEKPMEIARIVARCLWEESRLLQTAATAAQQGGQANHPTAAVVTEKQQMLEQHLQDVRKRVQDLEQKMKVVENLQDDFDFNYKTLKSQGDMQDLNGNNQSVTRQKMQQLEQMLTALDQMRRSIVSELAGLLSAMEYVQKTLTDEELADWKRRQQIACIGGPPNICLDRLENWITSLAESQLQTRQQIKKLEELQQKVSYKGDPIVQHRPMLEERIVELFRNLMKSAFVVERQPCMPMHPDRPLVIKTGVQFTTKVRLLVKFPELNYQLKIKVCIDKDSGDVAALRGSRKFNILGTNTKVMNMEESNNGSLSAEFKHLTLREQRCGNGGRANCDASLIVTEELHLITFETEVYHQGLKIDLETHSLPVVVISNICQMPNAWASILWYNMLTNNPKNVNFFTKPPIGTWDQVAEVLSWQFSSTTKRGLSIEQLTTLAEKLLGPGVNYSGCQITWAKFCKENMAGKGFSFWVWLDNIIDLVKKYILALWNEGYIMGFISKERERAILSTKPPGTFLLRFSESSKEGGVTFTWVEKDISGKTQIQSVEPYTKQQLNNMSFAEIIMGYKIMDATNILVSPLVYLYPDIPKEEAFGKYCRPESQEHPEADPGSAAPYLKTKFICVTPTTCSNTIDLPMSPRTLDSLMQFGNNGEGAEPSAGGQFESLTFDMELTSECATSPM

Structure (SMILES): CC(C)CC(=O)SCCOP(=O)(OCOC(=O)O[C@@H]1CCOC1)C(F)(F)c1ccc2sc(C(=O)N[C@H]3CCCC[C@H]4CC[C@@H](C(=O)N5C[C@H](c6cc[nH]c(=O)c6)[C@@H](C#N)C5)N4C3=O)cc2c1 (single isomer, unassigned) [Compound 1094]
- IC50 (pY705-STAT3 in PBMC; [1]): 1 to 3 µM
- IC50 (pY641-STAT6 in PBMC; [2]): 0.1 to 1 µM

Structure (SMILES): CC(C)CC(=O)SCCOP(=O)(OCOC(=O)O[C@H]1CCOC1)C(F)(F)c1ccc2sc(C(=O)N[C@H]3CCCC[C@H]4CC[C@@H](C(=O)N5C[C@H](c6cc[nH]c(=O)c6)[C@@H](C#N)C5)N4C3=O)cc2c1 (single isomer, unassigned) [Compound 1097]
- IC50 (pY705-STAT3 in PBMC; [1]): 1 to 3 µM
- IC50 (pY641-STAT6 in PBMC; [2]): 0.1 to 1 µM

Structure (SMILES): CC(C)CC(=O)SCCOP(=O)(OCOC(=O)OC(C)C)C(F)(F)c1ccc2ccc(C(=O)N[C@H]3CCCC[C@H]4CC[C@@H](C(=O)N5C[C@H](c6cc[nH]c(=O)c6)[C@@H](C#N)C5)N4C3=O)cc2c1 (single isomer, unassigned) [Compound 1100]
- IC50 (pY705-STAT3 in PBMC; [1]): 0.1 to 1 µM
- IC50 (pY641-STAT6 in PBMC; [2]): < 0.1 µM

Structure (SMILES): CCCOC(=O)[C@H](C)NP(=O)(Oc1ccccc1)C(F)c1ccc2sc(C(=O)N[C@H]3CCCC[C@H]4CC[C@@H](C(=O)N5C[C@@H](c6cccnc6)CC56CC6)N4C3=O)cc2c1 (stereo in doubt) [Compound 457, propyl (((R)-fluoro(2-(((3S,6S,10aS)-5-oxo-3-((R)-6-(pyridin-3-yl)-4-azaspiro[2.4]heptane-4-carbonyl)decahydropyrrolo[1,2-a]azocin-6-yl)carbamoyl)benzo [b]thiophen-5-yl)methyl)(phenoxy)phosphoryl)-L-alaninate]
- IC50 (pY705-STAT3 in PBMC; [1]): > 3 µM
- IC50 (pY641-STAT6 in PBMC; STAT6, PBMC, Table 115): < 0.1 µM

Structure (SMILES): CC(C)(C)C(=O)SCCOP(=O)(OCCSC(=O)C(C)(C)C)C(F)(F)c1ccc2sc(C(=O)N[C@H]3CC4(CC[C@H]5CC[C@@H](C(=O)N6CC(c7cccnc7)C6)N5C3=O)CC4)cc2c1 [Compound 130, S,S′-((((difluoro(2-(((3′S,6′S,10a′S)-5′-oxo-3′-(3-(pyridin-3-yl)azetidine-1-carbonyl)octahydro-5′H-spiro [cyclopropane-1,8′-pyrrolo[1,2-a]azocin]-6′-yl)carbamoyl)benzo[b]thiophen-5-yl)methyl)phosphoryl)bis (oxy))bis (ethane-2,1-diyl)) bis(2,2-dimethylpropane-thioate)]
- IC50 (pY705-STAT3 in PBMC; [3]): < 0.1 µM
- IC50 (pY641-STAT6 in PBMC; [4]): > 3 µM

Structure (SMILES): CCCC(=O)SCCOP(=O)(OCCSC(=O)CCC)C(F)(F)c1ccc2sc(C(=O)N[C@H]3CCCC[C@H]4CC[C@@H](C(=O)N(C)c5ccc6nnccc6c5)N4C3=O)cc2c1 [Compound 131, S,S′-(((((2-(((3S,6S,10aS)-3-(cinnolin-6-yl(methyl)carbamoyl)-5-oxodecahydro-pyrrolo[1,2-a]azocin-6-yl)carbamoyl)benzo[b]thiophen-5-yl)difluoromethyl)phosphoryl)bis (oxy))bis(ethane-2,1-diyl)) dibutanethioate]
- IC50 (pY705-STAT3 in PBMC; [3]): 0.1 to 1 µM
- IC50 (pY641-STAT6 in PBMC; [4]): < 0.1 µM

Structure (SMILES): CC(C)(C)C(=O)SCCOP(=O)(OCCSC(=O)C(C)(C)C)C(F)(F)c1ccc2sc(C(=O)N[C@H]3CCC4(CC4)C[C@H]4CC[C@@H](C(=O)N5CC(c6cccnc6)C5)N4C3=O)cc2c1 [Compound 132, S,S′-((((difluoro(2-(((3′S,6′S,10a′R)-5′-oxo-3′-(3-(pyridin-3-yl)azetidine-1-carbonyl)octahydro-1′H-spiro [cyclopropane-1,9′-pyrrolo[1,2-a]azocin]-6′-yl)carbamoyl)benzo[b]thiophen-5-yl)methyl)phosphoryl)bis (oxy))bis(ethane-2,1-diyl))bis(2,2-dimethylpropane-thioate)]
- IC50 (pY705-STAT3 in PBMC; [3]): < 0.1 µM
- IC50 (pY641-STAT6 in PBMC; [4]): > 3 µM

Structure (SMILES): CCCC(=O)SCCOP(=O)(Oc1ccccc1)C(F)(F)c1ccc2sc(C(=O)N[C@H]3CCC[C@H]4CC[C@@H](C(=O)N5CC(c6cccnc6)C5)N4C3=O)cc2c1 (stereo partly drawn) [Compound 136, S-(2-(((difluoro(2-(((3S,6S,9aS)-5-oxo-3-(3-(pyridin-3-yl)azetidine-1-carbonyl)octahydro-1H-pyrrolo[1,2-a]azepin-6-yl)carbamoyl)benzo[b]thiophen-5-yl)methyl) (phenoxy)phosphoryl)oxy)ethyl) butanethioate]
- IC50 (pY705-STAT3 in PBMC; pSTAT3, PBMC, Table 1114): < 0.1 µM
- IC50 (pY641-STAT6 in PBMC; pSTAT6, PBMC, Table 1114): 1 to 3 µM

Structure (SMILES): CCCC(=O)SCCOP(=O)(Oc1cccc2ccccc12)C(F)(F)c1ccc2sc(C(=O)N[C@H]3CCC[C@H]4CC[C@@H](C(=O)N5CC(c6cccnc6)C5)N4C3=O)cc2c1 (stereo partly drawn) [Compound 140, S-(2-(((difluoro(2-(((3S,6S,9aS)-5-oxo-3-(3-(pyridin-3-yl)azetidine-1-carbonyl)octahydro-1H-pyrrolo[1,2-a]azepin-6-yl)carbamoyl)benzo[b]thiophen-5-yl)methyl) (naphthalen-1-yloxy)phosphoryl)oxy)ethyl) butanethioate]
- IC50 (pY705-STAT3 in PBMC; pSTAT3, PBMC, Table 1114): < 0.1 µM
- IC50 (pY641-STAT6 in PBMC; pSTAT6, PBMC, Table 1114): 1 to 3 µM

Structure (SMILES): CN(C(=O)[C@@H]1CC[C@@H]2C/C=C\C[C@H](NC(=O)c3cc4cc(C(F)(F)P(=O)(OCOC(=O)C(C)(C)C)OCOC(=O)C(C)(C)C)ccc4[nH]3)C(=O)N21)c1ccccc1 [Compound 141, (((difluoro(2-(((3S,6S,10aR,Z)-3-(methyl (phenyl)carbamoyl)-5-oxo-1,2,3,5,6,7,10,10a-octahydropyrrolo [1,2-a]azocin-6-yl)carbamoyl)-1H-indol-5-yl)methyl)phosphoryl)bis (oxy))bis (methylene) bis(2,2-dimethylpropanoate)]
- IC50 (pY705-STAT3 in PBMC; [3]): 0.1 to 1 µM
- IC50 (pY641-STAT6 in PBMC; [4]): 0.1 to 1 µM

Structure (SMILES): CN(C(=O)[C@@H]1CC[C@@H]2CCCC[C@H](NC(=O)c3cc4cc(C(F)(F)P(=O)(OCOC(=O)C(C)(C)C)OCOC(=O)C(C)(C)C)ccc4[nH]3)C(=O)N21)c1ccccc1 [Compound 142, (((difluoro(2-(((3S,6S,10aS)-3-(methyl(phenyl)carbamoyl)-5-oxodecahydro-pyrrolo[1,2-a]azocin-6-yl)carbamoyl)-1H-indol-5-yl)methyl)phosphoryl)bis(oxy)) bis(methylene) bis(2,2-dimethylpropanoate)]
- IC50 (pY705-STAT3 in PBMC; [3]): 0.1 to 1 µM
- IC50 (pY641-STAT6 in PBMC; [4]): < 0.1 µM

Structure (SMILES): CN(C)S(=O)(=O)N1CCN(C(=O)[C@@H]2CC[C@@H]3CCCC[C@H](NC(=O)c4cc5cc(C(F)(F)P(=O)(OCOC(=O)C(C)(C)C)OCOC(=O)C(C)(C)C)ccc5s4)C(=O)N32)CC1 [Compound 145, ((((2-(((3S,6S,10aS)-3-(4-(N,N-dimethylsulfamoyl)piperazine-1-carbonyl)-5-oxodecahydro-pyrrolo[1,2-a]azocin-6-yl)carbamoyl)benzo[b]thiophen-5-yl)difluoromethyl)phosphoryl)bis (oxy))bis (methylene) bis(2,2-dimethylpropanoate)]
- IC50 (pY705-STAT3 in PBMC; [3]): < 0.1 µM
- IC50 (pY641-STAT6 in PBMC; [4]): < 0.1 µM

Structure (SMILES): CC(C)(C)C(=O)OCOP(=O)(OCOC(=O)C(C)(C)C)C(F)(F)c1ccc2sc(C(=O)N[C@@]3(C)CCCC[C@H]4CC[C@@H](C(=O)N5CC(c6ccccn6)C5)N4C3=O)cc2c1 [Compound 150, (((difluoro(2-(((3S,6S,10aS)-6-methyl-5-oxo-3-(3-(pyridin-2-yl)azetidine-1-carbonyl)decahydropyrrolo [1,2-a]azocin-6-yl)carbamoyl)benzo[b]thiophen-5-yl)methyl)phosphoryl)bis (oxy))bis (methylene) bis(2,2-dimethyl-propanoate)]
- IC50 (pY705-STAT3 in PBMC; [3]): 0.1 to 1 µM
- IC50 (pY641-STAT6 in PBMC; [4]): > 3 µM

Structure (SMILES): CC(C)OC(=O)OCOP(=O)(Cc1ccc2sc(C(=O)N[C@H]3CCCC4CC[C@@H](C(=O)N5CC(c6cccnc6)C5)N4C3=O)cc2c1)OCOC(=O)OC(C)C (stereo partly drawn) [Compound 158, diisopropyl (((((2-(((3S,6S,9aS)-5-oxo-3-(3-(pyridin-3-yl)azetidine-1-carbonyl)octahydro-1H-pyrrolo[1,2-a]azepin-6-yl)carbamoyl)benzo [b]thiophen-5-yl)methyl)phosphoryl)bis (oxy))bis(methyl-ene))bis(carbonate)]
- IC50 (pY705-STAT3 in PBMC; [3]): < 0.1 µM
- IC50 (pY641-STAT6 in PBMC; [4]): > 3 µM
